Experimental data as given in patent US10765664B2, “Treatment of infectious diseases” (CHILDREN'S MEDICAL CENTER CORPORATION, priority 2015, dated 2020).
Like-named read-outs stand apart in the source and are kept apart here.

Key:
IFITM3 = IFITM3 mRNA in THP-1 cells stimulated with cytokines or TLR agonists, real time PCR; type: cell-based, human; details: for IFITM3 mRNA induction: data not shown (Example 3)
RIG-I = RIG-I gene transcription in HeLa cells; type: cell-based, human
HIV LTR [1] = type: cell-based; details: for HIV transcriptional activation (LTR-Renilla): NTZ 5 or 10 μM pretreatment
PKR [2] = assay: PKR gene transcription in HeLa cells; type: cell-based, human
THP-1 cells = assay: Cellular acidification of THP-1 cells, Lysotracker Red flow cytometry; details: 24 hrs
live Ebola virus = type: cell-based
H37Rv-mCherry MTb = type: cell-based, Mycobacterium tuberculosis; details: concentration-dependent; 0, 5, 10, 15, or 20 μM NTZ pretreatment
[3] = test system: Zaire ebolavirus GP-pseudotyped lentivirus; assay: organism not typed; type: cell-based
MTb = details: by inhibiting the mTOR pathway; cited from earlier work
HIV = type: cell-based; details: MDM or AM/lymphocyte system; expected
[4] = test system: MTb-infected THP-1 cells and human monocytes; details: through inhibition of NQO1; cited from earlier work
influenza = details: in vivo; cited from earlier work
HCV = details: added to ribavirin plus pegylated IFN; cited from earlier work
nonreplicating MTb = details: cited from earlier work
X4-tropic HIV = details: human PBMC, with glucocorticoids; cited from earlier work
HIV LTR [5] = type: cell-based
HIV-1Bal/ZsGreen1 = type: cell-based; details: pretreatment with 1 μM NTZ
PKR [6] = target: PKR (Homo sapiens, UniProt P19525); details: hepatoma cells; cited from earlier work
[7] = tizoxanide after a 500 mg dose of NTZ; cited from earlier work
[8] = in vivo; cited from earlier work
[9] = in vivo; cited from earlier work; remark: listed apart in the source

Sequence of PKR (Homo sapiens, UniProt P19525) (P19525 whole entry): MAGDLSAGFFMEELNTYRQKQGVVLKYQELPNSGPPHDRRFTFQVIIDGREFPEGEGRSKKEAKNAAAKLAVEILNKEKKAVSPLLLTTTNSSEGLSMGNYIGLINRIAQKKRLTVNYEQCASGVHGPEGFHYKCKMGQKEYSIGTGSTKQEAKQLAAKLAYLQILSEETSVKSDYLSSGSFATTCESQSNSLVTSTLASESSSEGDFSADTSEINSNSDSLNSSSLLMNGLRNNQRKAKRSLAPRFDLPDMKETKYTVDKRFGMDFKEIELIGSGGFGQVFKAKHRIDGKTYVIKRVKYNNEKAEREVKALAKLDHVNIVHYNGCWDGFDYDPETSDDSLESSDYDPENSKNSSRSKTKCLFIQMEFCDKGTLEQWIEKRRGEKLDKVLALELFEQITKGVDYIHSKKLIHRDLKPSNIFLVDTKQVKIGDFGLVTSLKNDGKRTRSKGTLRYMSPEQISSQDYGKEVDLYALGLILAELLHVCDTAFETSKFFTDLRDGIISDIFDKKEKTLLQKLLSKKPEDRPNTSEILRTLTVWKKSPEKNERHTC

For IFN-γ: IFN-γ treatment, the “IFITM3 mRNA induction” value (IFITM3) was “strongly induced”.

For IL-6: recombinant IL-6, the IFITM3 transcript levels (IFITM3; THP-1 cells, by 24 hours post-stimulation) was “significant increase”.

With `CC(=O)Oc1ccccc1C(=O)Nc1ncc([N+](=O)[O-])s1` [NTZ, [2-[(5-nitro-1,3-thiazol-2-yl)carbamoyl]phenyl] ethanoate] the “transcription of RIG-I gene” value (RIG-I) was “induce”, the “activation of the integrated LTR-Renilla reporter gene” value (HIV LTR [1]; MTb infection, not shown) was “significantly inhibits” and the “HIV transcriptional activation (LTR-Renilla)” value (HIV LTR [1]; Sendai virus infection) was “inhibited”. For the same compound, the “HIV transcriptional activation (LTR-Renilla)” value (HIV LTR [1]; stimulation with TLR2 agonist Pam3Cys) was “inhibited”, the “transcription of PKR gene” value (PKR [2]) was “induce” and the intracellular acidity (THP-1 cells) was “increased intracellular acidity”. The “inhibition of live Ebola virus” value (live Ebola virus) was “inhibit”, the “MTb infection of THP-1 cells” value (H37Rv-mCherry MTb) was “potently inhibits” and the “infection by Zaire Ebolavirus GP-pseudotyped lentiviral particles” value [3] was “inhibits”. The inhibition at 8 µM ([3]; THP-1, read-out: inhibition of ZE-LV infection) was ~40%, the MTb proliferation (MTb) was “suppress” and the “MTb augmentation of HIV replication” value (HIV) was “suppressed”. For the same compound, the autophagy [4] was “promotes autophagy”, the “treatment of uncomplicated influenza” value (influenza) was “efficacy” and the HCV virological response (HCV) was “significantly improve”. The “reduction of viable, nonreplicating MTb” value (nonreplicating MTb) was “over 2 log units”, the “suppression of X4-tropic HIV replication” value (X4-tropic HIV) was “synergizes” and the “LTR reactivation (ZsGreen1)” value (HIV LTR [5]; TLR2 agonist Pam3Cys, 10 μM NTZ, 6 hrs) was “reduces”. The “LTR reactivation (ZsGreen1)” value (HIV LTR [5]; direct MTb infection, 6 hours) was “reduces”, the “HIVBALZsGreen1 infection of MDM” value (HIV-1Bal/ZsGreen1) was “suppresses” and the “autophosphorylation of PKR” value (PKR [6]) was “directly induces”.

For IL-1β: recombinant IL-1β, the “IFITM3 mRNA vs untreated control cells” value (IFITM3; THP-1 cells, by 48 hrs) was “significantly elevated”.

In the case of `O=C(Nc1ncc([N+](=O)[O-])s1)c1ccccc1O` [tizoxanide], the “peak mean plasma concentration” value [7] is listed as 26 µM.

With MCP-1: MCP-1 cytokine treatment the “IFITM3 mRNA induction” value (IFITM3) was “not induced”.

In the case of `CC(=O)Oc1ccccc1C(=O)Nc1ncc(Cl)s1` [RM-5038], the “tolerability compared to NTZ” value [8] is given as “better tolerated” and the “absorption in the GI tract compared to NTZ” value [9] is given as “better absorbed”.

For Pam3Cys, the IFITM3 gene expression (IFITM3; THP-1 cells, TLR agonist 100 ng/ml, 24 and 48 hours) was “significantly induced”.
